Source: patent publication US20230210825A1, “METHODS AND COMPOSITIONS FOR TREATING SUBJECTS WITH METABOLIC DISORDERS AND CORONAVIRUS INFECTIONS” (CIRIUS THERAPEUTICS, INC., priority 2020, published 2023)

Legend:
[1] = system: cell functions and key regulatory proteins; test: Impact of MSDC-0602K vs overnutrition on cell functions and key regulatory proteins (Table 1)
[2] = system: mice on high trans-fat, fructose, cholesterol (HTF-C) diet; test: Serum miRNA sequencing in HTF-C diet mice; type: in vivo; conditions: HTF-C diet containing 331 ppm MSDC-0602K after 4 or 16 weeks of plain HTF-C diet
Description: To begin evaluating the exosome cargo of MSDC-0602K-treated mice, WT mice were fed with either a low fat (LF) control diet (Research Diets D09100304) or high trans-fat, fructose, cholesterol (HTF-C) diet composed of 40% trans-fat, 20% fructose, 2% cholesterol (Research Diets D09100301). A subset of mice was fed plain HTF-C diet for 4 or 16 weeks, then switched to HTF-C diet that contained 331 ppm MSDC-0602K.
Total RNA was isolated from 400 μL of serum and small RNA sequencing was performed by adapter ligation, cDNA synthesis and size selection of 145-160 base pairs. Sequencing was then performed on an Illumina HiSeq3000.

[3] = system: subjects with biopsy proven non-alcoholic steatohepatitis (NASH) with fibrosis and no cirrhosis; test: EMMINENCE Phase 2b clinical trial; type: in vivo, human; conditions: for Peripheral Edema Present at Baseline / Isoleucine Baseline / Leucine Baseline / TotalBCAA Baseline / Valine Baseline / Mean HbA1c at Baseline: before treatment; for Isoleucine Visit 7 / Leucine Visit 7 / TotalBCAA Visit 7 / Valine Visit 7: 12-month endpoint; for HbA1c Placebo-corrected change from Baseline at 6 months: ▾ (decrease)
Description: An interim analysis of the EMMINENCE Phase 2b trial was conducted in the first 328 subjects who reached their six-month follow-up visit. This study is a randomized, double-blinded study of three doses (62.5 mg 125 mg, or 250 mg) of MSDC-0602K or placebo given orally once daily to subjects with biopsy proven non-alcoholic steatohepatitis (NASH; a non-limiting example of a metabolic disorder) with fibrosis and no cirrhosis.
The subjects included in this interim analysis had significant liver disease, as established by liver biopsy, with an average NAS at baseline of 5.3. […] Overall, baseline characteristics were well-balanced across treatment groups.

[4] = system: influenza virus A/PR/8/34 (H1N1) infected mice; test: Influenza virus infection of C57BL/6 mice; type: in vivo; conditions: 30 mg/kg for 8 days
Description: As shown in the top panel of FIG. 13A, C57BL/6 mice were infected with the influenza virus A/PR/8/34 (H1N1; ˜200 pfu/mouse) and then dosed for 8 days with vehicle or 30 mg/kg MSDC-0602K. As shown in the bottom panel of FIG. 13A, body weight was measured daily as indication of the health of the mice and at day 14 the mice were sacrificed for examination of their blood and lung tissue. The mice were sacrificed on day 14. […] The MCP-1 production levels are decreased in mice treated with MSDC-0602K compared with mice with vehicle treatment. Similarly, the inflammatory monocyte numbers in the lungs are reduced in mice treated with MSDC-0602K compared with mice with vehicle treatment. FIG. 13 C is a representative histology with a calculation of the percent disrupted area. […] The levels of protein-B (sftbp) and ABCA3 protein (abca3) were increased in mice treated with MSDC-0602K compared with mice with vehicle treatment. On the other hand, the total protein levels in bronchoalveolar lavage were decreased in mice treated with MSDC-0602K compared with mice with vehicle treatment.

[5] = system: subjects with biopsy proven non-alcoholic steatohepatitis (NASH) with fibrosis and no cirrhosis; test: EMMINENCE Phase 2b clinical trial; type: in vivo, human
carbonyl reductase = test: Metabolism to the hydroxy metabolite
[6] = system: diet-induced obese (60% HF diet) WT (fl/fl) and LS-MPC2−/− mice; test: Single dose in diet-induced obese WT and LS-MPC2−/− mice (GTT, plasma insulin, ALT, liver qPCR); conditions: for glucose tolerance (GTT): 20 h after a single gavage of 30 mg/kg, vs vehicle
[7] = 62.5 mg, N = 99, mean, baseline to 12-month endpoint
[8] = 125 mg, mean, baseline to 12-month endpoint
[9] = 250 mg, N = 101, mean, baseline to 12-month endpoint
[10] = 1-year Phase 2b dose-ranging trial, fatty liver disease with or without type 2 diabetes
[11] = all MSDC-0602K dose cohorts, interim analysis
[12] = all subjects, six months, 125 mg and 250 mg doses
[13] = sacrificed day 14, vs vehicle (FIG. 13B)

COc1cccc(C(=O)COc2ccc(CC3SC(=O)NC3=O)cc2)c1 (centres unmarked) [MSDC-0602K]
Fatty acid oxidation (burning fat) [1]: Increased | HIF1α (transcription factor responding to oxygen) [1]: Decreased | Inflammation (ballooning due to injury) [1]: Decreased | Insulin sensitivity (cellular response to insulin) [1]: Increased | PPARγ, PPARα (transcription factors regulating fat metabolism and inflammation) [1]: Increased | SREBP (transcription factor regulating fat synthesis) [1]: Decreased | de novo lipid synthesis (making new fat) [1]: Decreased | mTORC1 (important nutrient sensor) [1]: Decreased | serum miRNAs altered by HTF-C diet [2]: largely corrected | Peripheral Edema Present at 6 months ([3]; 62.5 mg (n = 81)): 7.80% | Peripheral Edema Present at Baseline ([3]; 62.5 mg group (n = 81)): 13.60% | Isoleucine Visit 7 ([3]; 62.5 mg, N = 99, mean): 61.47 | Leucine Visit 7 ([3]; 62.5 mg, N = 99, mean): 114.63 | TotalBCAA Visit 7 ([3]; 62.5 mg, N = 99, mean): 397.39 | Valine Visit 7 ([3]; 62.5 mg, N = 99, mean): 221.29 | Isoleucine Change from Baseline [3, 7]: −6.58 | TotalBCAA Change from Baseline [3, 7]: −30.07 | Valine Change from Baseline [3, 7]: −16.74 | Isoleucine Baseline ([3]; 62.5 mg, N = 99, mean): 69.03 | Leucine Baseline ([3]; 62.5 mg, N = 99, mean): 121.80 | TotalBCAA Baseline ([3]; 62.5 mg, N = 99, mean): 430.03 | Valine Baseline ([3]; 62.5 mg, N = 99, mean): 239.20 | Peripheral Edema Present at 6 months ([3]; 125 mg (n = 84)): 13.50% | Peripheral Edema Present at Baseline ([3]; 125 mg group (n = 84)): 13.10% | Isoleucine Visit 7 ([3]; 125 mg, mean): 60.06 | Leucine Visit 7 ([3]; 125 mg, mean): 115.95 | TotalBCAA Visit 7 ([3]; 125 mg, mean): 399.74 | Valine Visit 7 ([3]; 125 mg, mean): 223.73 | Isoleucine Change from Baseline [3, 8]: −2.92 | Leucine Change from Baseline [3, 8]: −0.60 | TotalBCAA Change from Baseline [3, 8]: −9.61 | Isoleucine Baseline ([3]; 125 mg, mean): 62.55 | Leucine Baseline ([3]; 125 mg, mean): 115.62 | TotalBCAA Baseline ([3]; 125 mg, mean): 408.60 | Valine Baseline ([3]; 125 mg, mean): 230.43 | Peripheral Edema Present at 6 months ([3]; 250 mg (n = 85)): 11.10% | Peripheral Edema Present at Baseline ([3]; 250 mg group (n = 85)): 9.40% | Valine Visit 7 ([3]; 250 mg, N = 101, mean): 212.52 | Isoleucine Change from Baseline [3, 9]: −10.10 | Valine Change from Baseline [3, 9]: −17.15 | Isoleucine Baseline ([3]; 250 mg, N = 101, mean): 66.92 | Leucine Baseline ([3]; 250 mg, N = 101, mean): 121.54 | Valine Baseline ([3]; 250 mg, N = 101, mean): 232.15 | edema ([3]; 1-year Phase 2b dose-ranging trial): without precipitation of edema | glycemic control [3, 10]: improved glycemic control | insulin resistance [3, 10]: reduced insulin resistance | Mean HbA1c at Baseline ([3]; Type II diabetes subjects, 62.5 mg group): 7.09% | HbA1c Placebo-corrected change from Baseline at 6 months ([3]; Type II diabetes subjects, 62.5 mg, p 0.022): ▾0.37 | Mean HbA1c at Baseline ([3]; Type II diabetes subjects, 125 mg group): 6.90% | HbA1c Placebo-corrected change from Baseline at 6 months ([3]; Type II diabetes subjects, 125 mg, p 0.001): ▾0.55 | Mean HbA1c at Baseline ([3]; Type II diabetes subjects, 250 mg group): 6.97% | HbA1c Placebo-corrected change from Baseline at 6 months ([3]; Type II diabetes subjects, 250 mg, p 0.006): ▾0.45 | HbA1c ([3]; Type II diabetes subjects, all doses): statistically significant improvement | HOMA-IR [3, 11]: Statistically significant reductions | HbA1c [3, 11]: Statistically significant reductions | HOMA-IR [3, 12]: statistically significant improvements | HbA1c [3, 12]: statistically significant improvements | fasting glucose [3, 12]: statistically significant improvements | insulin levels [3, 12]: statistically significant improvements | Adiponectin ([3]; all treatment cohorts): increased significantly in all treatment cohorts in a dose dependent manner | additional biomarkers of fibrosis such as hematocrit ([3]; interim analysis): trends for improvement | alkaline phosphatase ([3]; interim analysis, six months): Improvements | bilirubin ([3]; interim analysis, six months): Improvements | gamma GT ([3]; interim analysis, six months): Improvements | lipids ([3]; overall, interim analysis): neutral effect | liver enzymes, including ALT and AST ([3]; six months compared to baseline, interim analysis): statistically significant reductions | C-Reactive Protein levels ([3]; two lowest doses): decrease | expression of ABCA3 protein (abca3) in the lungs ([4]; sacrificed day 14, vs vehicle): increased | expression of surfactant protein-B (sftbp) in the lungs ([4]; sacrificed day 14, vs vehicle): increased | MCP-1 (CCL2) production in the lungs [4, 13]: decreased | inflammatory monocyte numbers in the lungs [4, 13]: reduced | disrupted area in lung (histology) ([4]; sacrificed day 14, vs vehicle (FIG. 13C)): significantly reduced | total protein levels in bronchoalveolar lavage (lung barrier leakage) ([4]; sacrificed day 14, vs vehicle (FIG. 13E)): decreased | Leucine Change from Baseline [5, 7]: −6.74 | Valine Change from Baseline [5, 8]: −6.08 | Isoleucine Visit 7 ([5]; 250 mg, N = 101, mean, 12-month endpoint): 56.15 | Leucine Change from Baseline [5, 9]: −10.55 | TotalBCAA Change from Baseline [5, 9]: −37.80 | Branched Chain Amino Acids (BCAA) ([5]; baseline to 12-month endpoint (Visit 7)): reduced | metabolism (carbonyl reductase): metabolized to its hydroxy metabolite (MSDC-0597) by a carbonyl reductase | glucose tolerance (GTT) ([6]; LS-MPC2−/− mice): no improvement in glucose tolerance | plasma ALT and liver injury gene expression in LS-MPC2−/− mice ([6]; LS-MPC2−/− mice, acute treatment): refractory to the beneficial effects | glucose tolerance (GTT) ([6]; WT mice): improved glucose tolerance | plasma ALT concentrations ([6]; WT mice, single dose (FIG. 8A)): decreased plasma ALT concentrations | gene expression for hepatic stellate cell activation and fibrotic scar formation ([6]; WT mice, single dose (FIG. 8B)): decreased gene expression | plasma insulin values ([6]; both WT and LS-MPC2−/− mice, single dose 30 mg/kg): decreased
